From US7087658B2, “Water-soluble coating agents bearing initiator groups” (SurModics, Inc., priority 1999, dated 2006) come the findings set out here.

Structures are written as SMILES.

For one experiment, the system named is platelets. Briefly: Platelet attachment and activation from platelet rich plasma (SEM). Format: cell-based, human. The settings on record: coated polyethylene (PE); for Platelet activation, spreading and aggregation: SEM. The procedure:
The surface-modified materials were incubated with platelet rich plasma (PRP), observed with a scanning electron microscope and photographed to determine the influence of surface chemistry on platelet attachment and activation.
Blood was collected fresh from human volunteers into 3.8% (v/v) sodium citrate solution using 9:1 ratio of blood to anticoagulant. The blood was centrifuged at 1200 rpm for 15 minutes to separate PRP from blood. The PRP was collected and kept at room temperature until used (less than 1 hour).
The test samples (½-inch circles) were placed in a 6-well plate, 1 sample per well. The PRP solution was added onto the top of the samples until the entire surface of the sample was covered, and the samples were incubated one hour at room temperature with no agitation. To quantify the platelet solution, a sample of the PRP was taken and diluted 1:100 with 1% (v/v) Oxalate Ammonium. A capillary tube was used to transfer a small amount of solution to a hemacytometer, and the sample was incubated in a covered petri dish for 30 minutes at room temperature for the platelets to settle.
The platelets were counted under a phase contrast microscope and determined to be approximately 50–100×10^9 platelets/L. After incubation, the PRP was removed carefully by aspiration and 3 mls of Tyrode's buffer (138-mM NaCl, 2.9-mM KCl, 12-mM sodium bicarbonate, pH 7.4) gently added to each well. The plates were agitated slightly on an orbital shaker for 15 minutes; the solution was changed and the wash repeated. The wash solution was aspirated and 2.0 ml of Karnovsky's fixative (25-mls formaldehyde, 5-mls 25% glutaraldehyde, 20-mls of a solution of 23% NaH2PO4—H2O, 77% NaHPO4 anhydrous) were added to each well. The plate was wrapped with parafilm and incubated overnight at room temperature with slight agitation.
The fixative was aspirated off and the samples were washed 3 times each with pure water, 15 minutes each. […] The platelets were counted and judged by degree of activation and morphology.

Experiment [1] relates to intrinsic and common pathways of coagulation. Put plainly: Partial thromboplastin time (PTT) test. Format: biochemical. The method, then:
A useful test in determining the hemocompatibility of a reagent is the partial thromboplastin time (PTT) test. The PTT is a test of the intrinsic (factors VIII, IX, XI, and XII) and common (fibrinogen, prothrombin, factors V and X) pathways of coagulation. A mixture of plasma and phospholipid platelet substitute (rabbit brain cephalin) is recalcified and the time required for the appearance of fibrin strands measured.
The PTT was tested to determine whether Compound I or Compound II have the ability to extend the control PTT. A test tube of rabbit brain cephalin (Sigma #RBC) in 0.85% NaCl and a test tube of 0.02 M CaCl2 was brought to 37° C. in a water bath. Dade Ci-trol coagulation control lyophilized plasma (Dade International, Inc., product no. 34224-10) was reconstituted in sterile deionized water. In 10×75 mm glass test tubes, 100 μl reconstituted plasma and 100 μl RBC were mixed and incubated at 37° C. in a water bath for 5 minutes. Next, 50 μl of sample (deionized water, a photocrosslinkable polyvinylpyrrolidone (available from SurModics, Inc., product no. PVO5), or Compound I or II) was added and mixed. While simultaneously starting a stop watch, 100 μl of 0.02 M CaCl2 was added to initiate the clotting cascade. After 40 seconds had passed, the test tubes were shaken lightly, observed for fibrin formation, and the number of seconds was recorded.
All samples were tested in duplicate. The appropriate control PTT, depending upon what solvent in which the reagent was dissolved, was subtracted from the average PTT for the reagent to give the time the control PTT was extended.

In experiment [2] the test system is Beta-Thromboglobulin (β-TG) released from the α-granules of platelets. Briefly: Beta-Thromboglobulin assay. Format: cell-based, human. The settings on record: coated polyethylene; PRP, one hour at room temperature; enzyme immunoassay. The procedure:
The surface-modified materials were incubated with PRP and the plasma was assayed for the Beta-Thromboglobulin (β-TG) released from the α-granules due to activation of the platelets. Blood was collected fresh from human volunteers into 3.8% (v/v) sodium citrate using 9:1 ratio of blood to anticoagulant. The blood was centrifuged at 1200 rpm for 15 minutes to separate PRP from blood. The PRP was collected and kept at room temperature until used (less than 1 h). The test samples (½-inch circles) were placed in a 6-well plate, 1 sample per well. The PRP solution was added onto the top of the samples until the entire surface of the sample was covered, and the samples incubated one hour at room temperature with no agitation. Control samples of plasma, for initial β-TG levels, were taken prior to incubation.
After incubation with the samples, prostaglandin E1 (Sigma, product no. P5515) was added to each sample and the plasma was assayed with an enzyme immunoassay kit (Asserachrom American Bioproduct, product no. 0250) for the amount of β-TG released.

The mark [3] stands for this setting: final concentration 0.7 mg/ml, solvent H2O.
Setting [4] is: final concentration 1.43 mg/ml, solvent H2O.
Where [5] appears, read: final concentration 0.7 mg/ml, solvent 50% IPA.
Where [6] appears, read: final concentration 1.29 mg/ml, solvent 50% IPA.

With `O=C(c1ccccc1)c1ccc(COc2cc(S(=O)(=O)[O-])cc(S(=O)(=O)[O-])c2OCc2ccc(C(=O)c3ccccc3)cc2)cc1.[K+].[K+]` [Compound I, 4,5-bis(4-benzoylphenylmethyleneoxy) benzene-1,3-disulfonic acid disodium salt], in the experiment with platelets, the “Platelet activation, spreading and aggregation” value is “less activation and spreading”. Besides, the “Morphology of platelets attached to modified surfaces” value in the experiment on platelets (SEM photographs) is “Full coverage, many aggregates, little”. In addition, the “Average PTT” value in experiment [1] (setting [3]) was 117 s; in experiment [1] (setting [4]), over 3600 s. Also, the “Formed Clot” value was “yes” in experiment [1] (setting [3]) and “no” in experiment [1] (setting [4]). Further, the “Time Extended Beyond Control PTT” value was 64 s in experiment [1] (final concentration 0.7 mg/ml, solvent H2O, DI H2O control subtracted) and over 3600 s in experiment [1] (final concentration 1.43 mg/ml, solvent H2O, DI H2O control subtracted). The β-TG release entry in experiment [2] is “lower levels of β-TG release than the uncoated and PVO5 controls”.

With `O=C(c1ccccc1)c1ccc(COc2cc(S(=O)(=O)[O-])c(OCc3ccc(C(=O)c4ccccc4)cc3)cc2S(=O)(=O)[O-])cc1.[K+].[K+]` [Compound II, 2,5-bis(4-benzoylphenylmethyleneoxy) benzene-1,4-disulfonic acid dipotassium salt], the “Platelet activation, spreading and aggregation” value in the experiment on platelets was “some spreading pseudopodia, but little or no aggregating”. Also, the entries for the “Average PTT” value in experiment [1] (setting [5]) and in experiment [1] (setting [6]) were 134 s and 3600 s, respectively. Besides, the “Formed Clot” value in experiment [1] (setting [5]) and in experiment [1] (setting [6]) was “yes” throughout. Besides, the “Time Extended Beyond Control PTT” value stood at 56 s in experiment [1] (final concentration 0.7 mg/ml, solvent 50% IPA, 50% IPA control subtracted) and 3522 s in experiment [1] (final concentration 1.29 mg/ml, solvent 50% IPA, 50% IPA control subtracted). In addition, the “Extension of the 50% IPA control PTT” value in experiment [1] (higher of the two final concentrations tested, 50% IPA control) was 1 h. Besides, the “Extension of PTT from water control” value in experiment [1] (higher of the two final concentrations tested, water control) is at least 1 h.
